From patent US9447100B2, “Substituted pyrazolo[1,5-A] pyrimidines as calcium receptor modulating agents” (Takeda Pharmaceutical Company Limited, priority 2002, dated 2016)

Compared with `CCOC(=O)CCc1ccc(C(CC)(CC)NC(=O)c2cnn3c2NC(c2ccccc2)CC3(C)C)cc1` (stereo not drawn) [Example 759, ethyl 3-(4-(1-(((7,7-dimethyl-5-phenyl-4,5,6,7-tetrahydropyrazolo[1,5-a]pyrimidin-3-yl)carbonyl)amino)-1-ethylpropyl)phenyl)propanoate], `CCOC(=O)CCCOc1ccc(C(CC)(CC)NC(=O)c2cnn3c2NC(c2ccccc2)CC3(C)C)cc1` (stereo not drawn) [Example 770, ethyl 4-(4-(1-(((7,7-dimethyl-5-phenyl-4,5,6,7-tetrahydropyrazolo[1,5-a]pyrimidin-3-yl)carbonyl)amino)-1-ethyl-propyl)phenoxy)butanoate] is lower in melting point: 135 to 136 °C for the first, 101 to 102 °C for the second.

First: CCCC(=O)Oc1ccc(C(CC)(CC)NC(=O)c2cnn3c2NC(c2ccccc2)CC3(C)C)cc1 (stereo not drawn) [Example 760, 4-(1-(((7,7-dimethyl-5-phenyl-4,5,6,7-tetrahydropyrazolo[1,5-a]pyrimidin-3-yl)carbonyl)amino)-1-ethylpropyl)phenyl butyrate]
Second: CCCOC(=O)c1ccc(C(CC)(CC)NC(=O)c2cnn3c2NC(c2ccccc2)CC3(C)C)cc1 (stereo not drawn) [Example 762, propyl 4-(1-(((7,7-dimethyl-5-phenyl-4,5,6,7-tetrahydropyrazolo[1,5-a]pyrimidin-3-yl)carbonyl)amino)-1-ethylpropyl)benzoate]
The melting point of the first is lower: 148 to 149 °C for the first, 162 to 163 °C for the second.

Compared with `CCC(CC)(NC(=O)c1c(C)nn2c1NC(c1ccccc1)CC2(C)C)c1ccc(F)cc1` (stereo not drawn) [Example 761, N-(1-ethyl-1-(4-fluorophenyl)propyl)-2,7,7-trimethyl-5-phenyl-4,5,6,7-tetrahydropyrazolo[1,5-a]pyrimidine-3-carboxamide], `CCC(CC)(NC(=O)c1c(C)nn2c1NC(c1ccccc1)CC2(C)C)c1ccc(SC)cc1` (stereo not drawn) [Example 833, N-(1-ethyl-1-(4-(methylthio)phenyl)propyl)-2,7,7-trimethyl-5-phenyl-4,5,6,7-tetrahydropyrazolo[1,5-a]pyrimidine-3-carboxamide] is lower in melting point: 182 to 183 °C for the first, 149 to 150 °C for the second.

Compared with `CCC(CC)(NC(=O)c1cnn2c1NC(c1ccccc1)CC2(C)C)c1ccc(CCCO)cc1` (stereo not drawn) [Example 763, N-(1-ethyl-1-(4-(3-hydroxy-propyl)phenyl)propyl)-7,7-dimethyl-5-phenyl-4,5,6,7-tetrahydropyrazolo[1,5-a]pyrimidine-3-carboxamide], `CCC(CC)(NC(=O)c1cnn2c1NC(c1ccccc1)CC2(C)C)c1ccc(SC)cc1` (stereo not drawn) [Example 832, N-(1-ethyl-1-(4-(methylthio)phenyl)propyl)-7,7-dimethyl-5-phenyl-4,5,6,7-tetrahydropyrazolo[1,5-a]pyrimidine-3-carboxamide] is lower in melting point: 194 to 195 °C for the first, 177 to 178 °C for the second.

Compared with `CCC(CC)(NC(=O)c1cnn2c1N(Cc1ccccc1)C(c1ccccc1)CC2(C)C)c1ccc(C)cc1` (stereo not drawn) [Example 765, 4-benzyl-N-(1-ethyl-1-(4-methylphenyl)propyl)-7,7-dimethyl-5-phenyl-4,5,6,7-tetrahydropyrazolo[1,5-a]pyrimidine-3-carboxamide], `CCC(CC)(NC(=O)c1cnn2c1NC(c1ccccc1)CC2(C)C)c1ccc(N(C)C)cc1` (stereo not drawn) [Example 778, N-(1-(4-(dimethylamino)phenyl)-1-ethylpropyl)-7,7-dimethyl-5-phenyl-4,5,6,7-tetrahydropyrazolo[1,5-a]pyrimidine-3-carboxamide] is lower in melting point: 142 to 143 °C for the first, 128 to 129 °C for the second.

First: CNC(=O)c1cnn2c1NC(c1ccccc1)CC2(C)C (stereo not drawn) [Example 768, N,7,7-trimethyl-5-phenyl-4,5,6,7-tetrahydropyrazolo[1,5-a]pyrimidine-3-carboxamide]
Second: CC1(C)CC(c2ccccc2Cl)Nc2c(C(=O)O)cnn21 (stereo not drawn) [Example 940, 5-(2-chlorophenyl)-7,7-dimethyl-4,5,6,7-tetrahydropyrazolo[1,5-a]pyrimidine-3-carboxylic acid]
The melting point of the first is lower: 116 to 117 °C for the first, 167 to 168 °C for the second.

First: CCC(CC)(NC(=O)c1cnn2c1NC(c1ccccc1)CC2(C)C)c1ccc(OCCCC(=O)O)cc1 (stereo not drawn) [Example 771, 4-(4-(1-(((7,7-dimethyl-5-phenyl-4,5,6,7-tetrahydropyrazolo[1,5-a]pyrimidin-3-yl)carbonyl)amino)-1-ethyl-propyl)phenoxy)butanoic acid]
Second: CCOC(=O)CCCCOc1ccc(C(CC)(CC)NC(=O)c2cnn3c2NC(c2ccccc2)CC3(C)C)cc1 (stereo not drawn) [Example 817, ethyl 5-(4-(1-(((7,7-dimethyl-5-phenyl-4,5,6,7-tetrahydropyrazolo[1,5-a]pyrimidin-3-yl)carbonyl)amino)-1-ethyl-propyl)phenoxy)pentanoate]
The melting point of the first is higher: 170 to 171 °C for the first, 120 to 121 °C for the second.

First: CCCCOC(=O)CCCOc1ccc(C(CC)(CC)NC(=O)c2cnn3c2NC(c2ccccc2)CC3(C)C)cc1 (stereo not drawn) [Example 818, butyl 4-(4-(1-(((7,7-dimethyl-5-phenyl-4,5,6,7-tetrahydropyrazolo[1,5-a]pyrimidin-3-yl)carbonyl)amino)-1-ethyl-propyl)phenoxy)butanoate]
Second: CCOC(=O)c1ccc(C(CC)(CC)NC(=O)c2c(C)nn3c2NC(c2ccccc2)CC3(C)C)cc1 (stereo not drawn) [Example 954, ethyl 4-(1-ethyl-1-(((2,7,7-trimethyl-5-phenyl-4,5,6,7-tetrahydropyrazolo[1,5-a]pyrimidin-3-yl)carbonyl)amino)propyl) benzoate]
The melting point of the first is lower: 133 to 134 °C for the first, 152 to 153 °C for the second.

First: COc1ccc(C2CC(C)(C)n3ncc(C(=O)O)c3N2)cc1 (stereo not drawn) [Example 942, 5-(4-methoxyphenyl)-7,7-dimethyl-4,5,6,7-tetrahydropyrazolo[1,5-a]pyrimidine-3-carboxylic acid]
Second: COc1ccc(C2CC(C)(C)n3nc(C)c(C(=O)O)c3N2)cc1 (stereo not drawn) [Example 950, 5-(4-methoxyphenyl)-2,7,7-trimethyl-4,5,6,7-tetrahydropyrazolo[1,5-a]pyrimidine-3-carboxylic acid]
The melting point of the first is higher: 196 to 197 °C for the first, 178 to 179 °C for the second.

First: COc1ccccc1C1CC(C)(C)n2nc(C)c(C(=O)O)c2N1 (stereo not drawn) [Example 944, 5-(2-methoxyphenyl)-2,7,7-trimethyl-4,5,6,7-tetrahydropyrazolo[1,5-a]pyrimidine-3-carboxylic acid]
Second: COc1cccc(C2CC(C)(C)n3nc(C)c(C(=O)O)c3N2)c1 (stereo not drawn) [Example 947, 5-(3-methoxyphenyl)-2,7,7-trimethyl-4,5,6,7-tetrahydropyrazolo[1,5-a]pyrimidine-3-carboxylic acid]
The melting point of the first is higher: 198 to 199 °C for the first, 151 to 152 °C for the second.

First: Cc1nn2c(c1C(=O)O)NC(c1cccc(F)c1)CC2(C)C (stereo not drawn) [Example 945, 5-(3-fluorophenyl)-2,7,7-trimethyl-4,5,6,7-tetrahydropyrazolo[1,5-a]pyrimidine-3-carboxylic acid]
Second: Cc1cccc(C2CC(C)(C)n3nc(C)c(C(=O)O)c3N2)c1 (stereo not drawn) [Example 946, 2,7,7-trimethyl-5-(3-methylphenyl)-4,5,6,7-tetrahydropyrazolo[1,5-a]pyrimidine-3-carboxylic acid]
The melting point of the first is higher: 153 to 155 °C for the first, 146 to 148 °C for the second.

First: Cc1nn2c(c1C(=O)O)NC(c1ccc(F)cc1)CC2(C)C (stereo not drawn) [Example 948, 5-(4-fluorophenyl)-2,7,7-trimethyl-4,5,6,7-tetrahydropyrazolo[1,5-a]pyrimidine-3-carboxylic acid]
Second: Cc1ccc(C2CC(C)(C)n3nc(C)c(C(=O)O)c3N2)cc1 (stereo not drawn) [Example 949, 2,7,7-trimethyl-5-(4-methylphenyl)-4,5,6,7-tetrahydropyrazolo[1,5-a]pyrimidine-3-carboxylic acid]
The melting point of the first is lower: 173 to 174 °C for the first, 181 to 182 °C for the second.

First: Cc1nn2c(c1C(=O)O)NC(c1cccs1)CC2(C)C (stereo not drawn) [Example 951, 2,7,7-trimethyl-5-(2-thienyl)-4,5,6,7-tetrahydropyrazolo[1,5-a]pyrimidine-3-carboxylic acid]
Second: CC1(C)CC(c2ccccc2)Nc2c(C(=O)O)c(OCCO)nn21 (stereo not drawn) [Example 953, 2-(2-hydroxyethoxy)-7,7-dimethyl-5-phenyl-4,5,6,7-tetrahydropyrazolo[1,5-a]pyrimidine-3-carboxylic acid]
The melting point of the first is higher: 186 to 187 °C for the first, 137 to 139 °C for the second.

Compared with `Cc1ccc(C2CC(C)(C)n3ncc(C(=O)O)c3N2)c(C)c1` (stereo not drawn) [Example 952, 5-(2,4-dimethylphenyl)-7,7-dimethyl-4,5,6,7-tetrahydropyrazolo[1,5-a]pyrimidine-3-carboxylic acid], `CCC(CC)(NC(=O)c1c(C)nn2c1NC(c1ccccc1F)CC2(C)C)c1ccc(C)cc1` (stereo not drawn) [Example 962, N-[1-ethyl-1-(4-methylphenyl)propyl]-5-(2-fluorophenyl)-2,7,7-trimethyl-4,5,6,7-tetrahydropyrazolo[1,5-a]pyrimidine-3-carboxamide] is lower in melting point: 155 to 157 °C for the first, 139 to 140 °C for the second.

First: CCC(CC)(NC(=O)c1c(C)nn2c1NC(c1ccccc1)CC2(C)C)c1ccc(CO)cc1 (stereo not drawn) [Example 955, N-(1-ethyl-1-(4-(hydroxy-methyl)phenyl)propyl)-2,7,7-trimethyl-5-phenyl-4,5,6,7-tetrahydropyrazolo[1,5-a]pyrimidine-3-carboxamide]
Second: CCC(CC)(NC(=O)c1c(C)nn2c1NC(c1ccccc1)CC2(C)C)c1ccc(C(C)=O)cc1 (stereo not drawn) [Example 977, N-(1-(4-acetylphenyl)-1-ethylpropyl)-2,7,7-trimethyl-5-phenyl-4,5,6,7-tetrahydropyrazolo[1,5-a]pyrimidine-3-carboxamide]
The melting point of the first is lower: 146 to 147 °C for the first, 200 to 202 °C for the second.

First: CCC(CC)(NC(=O)c1c(OCCO)nn2c1NC(c1ccccc1)CC2(C)C)c1ccc(C)cc1 (stereo not drawn) [Example 975, N-(1-ethyl-1-(4-methylphenyl)propyl)-2-(2-hydroxyethoxy)-7,7-dimethyl-5-phenyl-4,5,6,7-tetrahydropyrazolo[1,5-a]pyrimidine-3-carboxamide]
Second: CCC(CC)(NC(=O)c1c(C)nn2c1NC(c1ccccc1)CC2(C)C)c1ccc(C(C)O)cc1 (stereo not drawn) [Example 978, N-(1-ethyl-1-(4-(1-hydroxyethyl)phenyl)propyl)-2,7,7-trimethyl-5-phenyl-4,5,6,7-tetrahydropyrazolo[1,5-a]pyrimidine-3-carboxamide]
The melting point of the first is lower: 115 to 117 °C for the first, 165 to 166 °C for the second.

`CCC(CC)(NC(=O)c1c(C)nn2c1NC(c1ccccc1)CC2(C)C)c1ccc(C(=O)O)cc1` (stereo not drawn) [Example 979, 4-(1-ethyl-1-(((2,7,7-trimethyl-5-phenyl-4,5,6,7-tetrahydropyrazolo[1,5-a]pyrimidin-3-yl)carbonyl)amino)propyl) benzoic acid] gave a melting point of 244 to 246 °C.
